Reference: US10266544B2, “Aryl substituted aminomethyl spectinomycin analogs as antibacterial agents” (ST. JUDE CHILDREN'S RESEARCH HOSPITAL, INC., priority 2013, dated 2019)
Structures can show the parent of a compound that is named as a salt. Where two headings read alike, the source gives them in different places.

Legend:
Format in all cases: cell-based
[1] = test system: Burkholderia cepacia (ATCC 25416); assay: MIC determination, microbroth dilution; conditions: Burkholderia cepacia
[2] = test system: Bacillus anthracis, Sterne 34F2; assay: microbe, parasite or virus in culture; conditions: STERNE34F2, read-out: MIC B.a.
[3] = test system: Streptococcus pneumoniae (R6); assay: MIC determination, microbroth dilution
[4] = test system: Haemophilus influenza (ATCC 49247); assay: microbe, parasite or virus in culture; conditions: ATCC49247; Haemophilus influenza; 4 μg per disc; range of at least two experiments; read-out: Zone of inhibition H.i.
[5] = test system: Staphylococcus aureus (ATCC 29213); assay: MIC determination, microbroth dilution
[6] = test system: acinetobacter baumannii (ATCC 19606); assay: MIC determination, microbroth dilution; conditions: ATCC19606
[7] = test system: Escherichia coli (ATCC 700926); assay: MIC determination, microbroth dilution; conditions: ATCC700926; Escherichia coli (ATCC 700926); read-out: MIC E.c.
[8] = test system: Proteus mirabilis (ATCC 25933); assay: MIC determination, microbroth dilution; conditions: ATCC25933
Moraxella catarrhalis = assay: MIC determination (Table 6)
[9] = test system: Neisseria meningitides (ATCC 13077); assay: Disc diffusion assay; conditions: ATCC13077, 4 μg per disc, read-out: Zone of inhibition N.m.
[10] = test system: Proteus vulgaris (ATCC 33420); assay: MIC determination, microbroth dilution; conditions: ATCC33420
[11] = test system: M. tuberculosis clinical isolates; assay: microbe, parasite or virus in culture; conditions: Mycobacterium tuberculosis
[12] = test system: Klebsiella pneumoniae (ATCC 33495); assay: MIC determination, microbroth dilution; conditions: ATCC33495
Bacillus anthracis = assay: microbe, parasite or virus in culture; conditions: read-out: MIC B.a.
Yersinia pestis = assay: microbe, parasite or virus in culture; conditions: read-out: MIC Y.p.
[13] = test system: Streptococcus pyogenes (ATCC 700294); assay: MIC determination, microbroth dilution; conditions: ATCC700294; Streptococcus pyogenes (ATCC 700294); read-out: MIC S. py.
[14] = test system: live vaccine strain (LVS) of Francisella tularensis; assay: microbe, parasite or virus in culture; conditions: Francisella tularensis, read-out: MIC F.t.
[15] = test system: MRSA, Staphylococcus aureus (NRS70); assay: MIC determination, microbroth dilution; conditions: Staphylococcus aureus (NRS70); read-out: MIC MRSA
[16] = test system: Stenotrophomonas maltophilia (ATCC 13637); assay: MIC determination, microbroth dilution
[17] = test system: Neisseria gonorrhoeae (ATCC 49226); assay: Agar MIC determination (Alamar Blue); conditions: ATCC49226, agar MIC, read-out: MIC N.g.
[18] = test system: Pseudomonas aeruginosa (PA01); assay: MIC determination, microbroth dilution
[19] = test system: Bacillus subtilis (ATCC 23857); assay: MIC determination, microbroth dilution; conditions: ATCC23857; Bacillus subtilis (ATCC 23857); read-out: MIC B.s.
[20] = test system: Enterococcus faecalis (ATCC 33186); assay: MIC determination, microbroth dilution
E. coli K12 ΔtolC = assay: microbe, parasite or virus in culture; conditions: Escherichia coli, read-out: MIC E.c. Δtolc
[21] = test system: Neisseria gonorrhoeae (ATCC 49226); assay: Disc diffusion assay; conditions: ATCC49226, 4 μg per disc, read-out: Zone of inhibition N.g.
Listeria monocytogenes = assay: MIC determination (Table 6)
[22] = test system: Legionella pneumophila (ATCC 33153); assay: microbe, parasite or virus in culture; conditions: ATCC33153, 72 h, read-out: Zone of inhibition L.p.
[23] = test system: Streptococcus pneumoniae clinical isolates representing several serotypes; assay: MIC determination, Streptococcus pneumoniae panel of clinical isolates (Table 7); conditions: Streptococcus pneumoniae
[24] = ATCC25416, read-out: MIC B.c., Burkholderia cepacia (ATCC 25416)
[25] = ATCC25416, read-out: MIC B.c., Burkholderia cepacia, Table 6
[26] = Streptococcus pneumoniae (R6), read-out: MIC S. pn.
[27] = ATCC29213, Staphylococcus aureus (ATCC 29213), read-out: MIC S.a.
[28] = ATCC33186, Enterococcus faecalis (ATCC 33186), read-out: MIC E.f.
[29] = ATCC13637, Stenotrophomonas maltophilia (ATCC 13637), read-out: MIC S.m.

Which results are given for `CN[C@@H]1[C@H](O)[C@H](NC)[C@H]2O[C@]3(O)[C@H](O[C@@H]2[C@H]1O)O[C@H](C)C[C@@]3(O)CNCc1ccc(F)c(F)c1` [compound 12, 3′-(R)-3′-[(3,4-difluoro)benzylaminomethyl)]dihydrospectinomycin Trihydrochloride]?
MIC [1, 24]: ≥ 200 µg/mL; MIC [1, 25]: ≥ 200 µg/mL; MIC [2]: 50 µg/mL; MIC [3, 26]: 6.3 µg/mL; zone of inhibition at 4 µg/disc [4]: 16 to 17 mm; MIC [5, 27]: 100 to 200 µg/mL; MIC [6]: ≥ 200 µg/mL; MIC [7]: 25 to 50 µg/mL; MIC [8]: > 200 µg/mL; MIC (Moraxella catarrhalis): 6.3 to 12.5 µg/mL; zone of inhibition at 4 µg/disc [9]: 17 mm; MIC [10]: > 200 µg/mL; MIC ([11]; H37RV, read-out: MIC H37Rv): 50 µg/mL; MIC [12]: > 200 µg/mL; MIC (Bacillus anthracis): 50 µg/mL; MIC (Yersinia pestis): 200 µg/mL; MIC [13]: 3.1 µg/mL; MIC [14]: 3.1 to 6.3 µg/mL; MIC [15]: 200 µg/mL; MIC ([16]; Stenotrophomonas maltophilia, ATCC13637, read-out: MIC S.m.): 12.5 to 25 µg/mL; MIC [17]: 25 to 50 µg/mL; MIC [18]: ≥ 200 µg/mL; MIC [19]: 25 to 50 µg/mL; MIC [20, 28]: 50 µg/mL; MIC (E. coli K12 ΔtolC): 12.5 to 25 µg/mL; zone of inhibition at 4 µg/disc [21]: 15 to 17 mm; MIC (Listeria monocytogenes): 6.3 to 12.5 µg/mL

What does the source list for `CN[C@@H]1[C@H](O)[C@H](NC)[C@H]2O[C@]3(O)[C@H](O[C@@H]2[C@H]1O)O[C@H](C)C[C@@]3(O)CNCCc1ccccc1` [compound 6, 3′-(R)-3′-(phenethylaminomethyl)dihydrospectinomycin Trihydrochloride]?
MIC [1, 24]: > 200 µg/mL; MIC [1, 25]: > 200 µg/mL; MIC [2]: 6.3 to 12.5 µg/mL; MIC [3, 26]: 3.1 µg/mL; MIC ([3]; Streptococcus pneumoniae, S. pneumoniae R6, Drug Susceptible, read-out: MIC R6): 6.3 µg/mL; zone of inhibition at 4 µg/disc [4]: 14 mm; zone of inhibition at 4 µg/disc [22]: 36 mm; MIC ([5]; Staphylococcus aureus, ATCC29213, read-out: MIC S.a.): 6.3 to 12.5 µg/mL; MIC [6]: > 200 µg/mL; MIC [7]: 6.3 to 12.5 µg/mL; MIC [8]: > 200 µg/mL; MIC (Moraxella catarrhalis): 0.4 µg/mL; zone of inhibition at 4 µg/disc [9]: 16 mm; MIC [10]: 50 to 100 µg/mL; MIC ([11]; H37RV, read-out: MIC H37Rv): 1.6 µg/mL; MIC ([11]; read-out: MIC TN022): 3.1 µg/mL; MIC ([11]; read-out: MIC TN026): 3.1 µg/mL; MIC [12]: 25 to 50 µg/mL; MIC (Bacillus anthracis): 6.3 to 12.5 µg/mL; MIC (Yersinia pestis): 200 µg/mL; MIC [13]: 3.1 µg/mL; MIC [14]: 1.6 µg/mL; MIC [15]: 12.5 to 25 µg/mL; MIC ([23]; BAA1407, S. pneumoniae BAA-1407, Macrolide Resistant, read-out: MIC BAA-1407): 12.5 µg/mL; MIC ([23]; S. pneumoniae A66.1x, Drug Susceptible, read-out: MIC A66.1x): 3.1 µg/mL; MIC ([23]; S. pneumoniae BHN97x, Drug Susceptible, read-out: MIC BHN97x): 3.1 µg/mL; MIC ([23]; S. pneumoniae D39X, Drug Susceptible, read-out: MIC D39X): 3.1 µg/mL; MIC ([23]; S. pneumoniae Daw7, PenG Resistant, read-out: MIC Daw7): 6.3 µg/mL; MIC ([23]; S. pneumoniae Daw8, PenG Resistant, read-out: MIC Daw8): 6.3 µg/mL; MIC ([23]; S. pneumoniae Daw9, PenG Resistant, read-out: MIC Daw9): 6.3 µg/mL; MIC ([23]; S. pneumoniae Daw62, PenG Resistant, read-out: MIC Daw62): 6.3 µg/mL; MIC ([23]; S. pneumoniae Daw64, PenG Resistant, read-out: MIC Daw64): 6.3 µg/mL; MIC ([23]; S. pneumoniae OVA6, Macrolide Resistant, read-out: MIC OVA6): 3.1 µg/mL; MIC ([23]; S. pneumoniae T4X, Drug Susceptible, read-out: MIC T4X): 3.1 µg/mL; MIC [16, 29]: 1.6 µg/mL; MIC [18]: ≥ 200 µg/mL; MIC [19]: 1.6 µg/mL; MIC [20, 28]: 12.5 µg/mL; MIC (E. coli K12 ΔtolC): 3.1 to 6.3 µg/mL; zone of inhibition at 4 µg/disc [21]: 16 mm; MIC (Listeria monocytogenes): 3.1 µg/mL

How did the MIC [1, 24] turn out when `CN[C@@H]1[C@H](O)[C@H](NC)[C@H]2O[C@]3(O)[C@H](O[C@@H]2[C@H]1O)O[C@H](C)C[C@@]3(O)CNCc1cccc(F)c1` [compound 15, 3′-(R)-3′-[(3-fluoro)benzylaminomethyl)]dihydrospectinomycin Trihydrochloride] was run?
The MIC was ≥ 200 µg/mL.

And the MIC [1, 25]?
Its MIC is ≥ 200 µg/mL.

And the MIC [2]?
Its MIC is 12.5 to 25 µg/mL.

And the MIC [3, 26]?
The MIC was 3.1 µg/mL.

And the zone of inhibition at 4 µg/disc [4]?
Its zone of inhibition at 4 µg/disc is 14 mm.

And the zone of inhibition at 4 µg/disc [22]?
The zone of inhibition at 4 µg/disc was 41 mm.

And the MIC [5, 27]?
The MIC was 100 µg/mL.

And the MIC [6]?
Its MIC is > 200 µg/mL.

What about the MIC [7] of the same molecule?
Its MIC is 25 to 50 µg/mL.

And the MIC [8]?
Its MIC is > 200 µg/mL.

And the MIC (Moraxella catarrhalis)?
Its MIC is 1.6 µg/mL.

And the zone of inhibition at 4 µg/disc [9]?
Its zone of inhibition at 4 µg/disc is 20 mm.

What about the MIC [10] of the same molecule?
The MIC was 200 µg/mL.

And the MIC ([11]; H37RV, read-out: MIC H37Rv)?
The MIC was 25 µg/mL.

What about the MIC [12] of the same molecule?
Its MIC is > 200 µg/mL.

And the MIC (Bacillus anthracis)?
The MIC was 12.5 to 25 µg/mL.

And the MIC (Yersinia pestis)?
Its MIC is 100 µg/mL.

What about the MIC [13] of the same molecule?
The MIC was 3.1 µg/mL.

What about the MIC [15] of the same molecule?
The MIC was 50 µg/mL.

And the MIC [16, 29]?
The MIC was 12.5 µg/mL.

And the MIC [17]?
The MIC was 25 to 50 µg/mL.

And the MIC [18]?
Its MIC is ≥ 200 µg/mL.

What about the MIC [19] of the same molecule?
The MIC was 3.1 to 6.3 µg/mL.

And the MIC ([20]; Enterococcus faecalis, ATCC33186, read-out: MIC E.f.)?
Its MIC is 12.5 to 25 µg/mL.

What about the MIC (E. coli K12 ΔtolC) of the same molecule?
Its MIC is 6.3 to 12.5 µg/mL.

What about the zone of inhibition at 4 µg/disc [21] of the same molecule?
Its zone of inhibition at 4 µg/disc is 18 mm.

And the MIC (Listeria monocytogenes)?
The MIC was 6.3 µg/mL.
